# System: methacholine-induced bronchoconstriction in guinea pigs
# Assay: Inhibition of methacholine-induced bronchoconstriction in anaesthetized, mechanically ventilated guinea pigs
# Format: in vivo, guinea pig
# Procedure: Inhibition of Methacholine-induced Bronchoconstriction in Guinea Pigs by ROFLUMILAST in combination with tiotropium-bromide
# To assess the inhibitory effect of tiotropium-bromide, ROFLUMILAST, and the combination of both compounds on methacholine-induced bronchoconstriction in anaesthetized, mechanically ventilated guinea pigs.
# Male Dunkin Hartley guinea pigs, body weight 350-450 g when performing the experiments.
# 75 min before methacholine-induced bronchospasm (at −75 min) animals were anaesthetized with urethane i.p. (1.2 g/kg). At −5 min for i.v. injections the right jugular vein and for ventilation the trachea was cannulated. At −45 min NaCl 0.9% or tiotropium-bromide was administered i.v. (1 μg/kg). At −30 min lactose (10 mg/kg) or ROFLUMILAST (4 mg/kg) mixed with lactose was administered intratracheally by a dry powder aerolizer. At −10 min pancuronium-bromide (1.5 mg/kg) was administered i.v. to abolish spontaneous breathing. Animals were mechanically ventilated with 60 breath/min and a tidal volume of 7 ml/kg. Dynamic lung compliance (COM) and airway conductance (CON) were calculated with the help of a computer system from airflow and ventilation pressure signals. At t=0 min methacholine was administered i.v. (60 μg/kg) to induce Bronchoconstriction.
# COM and CON were determined up to 120 s after methacholine-induced bronchospasm. AUCs for 0 to 120s were determined. Inhibition was calculated based on the AUC data. Data are shown as mean±SEM. Results were taken to be significant if p<0.05 versus placebo (ANOVA and Dunnett's multiple comparison test)
# [1] = male Dunkin Hartley guinea pigs, methacholine 60 μg/kg i.v., tiotropium-bromide 1 μg/kg i.v. at -45 min, ROFLUMILAST 4 mg/kg intratracheally at -30 min, inhibition versus placebo
smiles,measurement,setting,value
C[N+]1(C)[C@@H]2C[C@@H](OC(=O)C(O)(c3cccs3)c3cccs3)C[C@H]1[C@@H]1O[C@@H]12 [tiotropium-bromide],"Inhibition of methacholine-induced airway conductance (CON) decrease, based on AUC 0-120 s",[1],5.9%
same,"Inhibition of methacholine-induced dynamic lung compliance (COM) decrease, based on AUC 0-120 s",[1],12%
same,Effect on methacholine-induced bronchospasm (in words),"same doses, significant if p<0.05 versus placebo (ANOVA and Dunnett's test)",no significant effect

# — patent US20060189642A1, “Synergistic combination comprising roflumilast and an anticholinergic agent selected from ipratropium, oxitropium and tiotropium salts for the treatment of respiratory diseases” (ALTANA PHARMA AG, priority 2003, published 2006)
